Results reported in publication PMC5859192, “Mechanisms underlying the lack of endogenous processing and CLIP-mediated binding of the invariant chain by HLA-DP^84Gly” (Scientific Reports, 2018).
Numbering of substitutions follows the chain as printed. “And” between values parts separate entries of the source, which are not always exact repeats. Equal values may be shown once. Ends that are not written are not given here.

Columns and labels:
[1] = molecular target: T1, HLA-DP4 (DPA1*01:03/DPB1*04:01) expressed on K562 cells (Homo sapiens, UniProt P04440+P20036); assay: cell-based; format: binding
T1 construct: expressed in transfected cells; host or cells: K562 (human erythroleukemic cells without endogenous MHC class II, Ii or HLA-DM), retrovirally transduced, pMX vector
T1 sequence (P20036 29-260): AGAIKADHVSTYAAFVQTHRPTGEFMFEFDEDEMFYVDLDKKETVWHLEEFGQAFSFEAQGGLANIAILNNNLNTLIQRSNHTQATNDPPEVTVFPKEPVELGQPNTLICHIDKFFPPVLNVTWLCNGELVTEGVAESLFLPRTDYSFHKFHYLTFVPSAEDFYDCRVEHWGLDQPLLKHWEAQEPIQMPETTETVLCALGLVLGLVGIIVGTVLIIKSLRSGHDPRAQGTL
T1 sequence (P04440 30-258): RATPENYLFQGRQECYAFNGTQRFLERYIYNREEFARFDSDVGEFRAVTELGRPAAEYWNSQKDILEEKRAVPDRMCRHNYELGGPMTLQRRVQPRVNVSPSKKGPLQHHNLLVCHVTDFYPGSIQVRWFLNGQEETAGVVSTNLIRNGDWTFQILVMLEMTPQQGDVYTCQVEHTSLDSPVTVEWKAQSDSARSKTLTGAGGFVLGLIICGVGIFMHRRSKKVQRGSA

[2] = molecular target: T2, DP4^84DEAV87 (substitution mutant of DPB1*04:01 with DPA1*01:03) expressed on K562 cells (Homo sapiens, UniProt P04440+P20036, G113D/G114E/M116V/P115A); assay: cell-based; format: binding
T2 construct: expressed in transfected cells; host or cells: K562 (human erythroleukemic cells without endogenous MHC class II, Ii or HLA-DM), retrovirally transduced, pMX vector
T2 sequence (P20036 29-260): T1 sequence (P20036 29-260)
T2 sequence (P04440 30-258 G113D/G114E/P115A/M116V): T1 sequence (P04440 30-258) with G84D, G85E, P86A, M87V

Sequence | IC50 [1] | IC50 [2] [µM]
KKLLTQHFVQENYLEY [MAGE-A3_243–258, reference compound] | 28.7 µM | 33.7
LPKPPKPVSKMRMATPLLMQALPM [CLIP] | 12.2 µM and 14.7 µM | 6
LPKPPKPVSKMRMATPLLMQALPMGALPQ [C-extended CLIP] | 15.3 µM | 
NLRMKLPKPPKPVSKMRMATPLLMQALPM [N-extended CLIP] | 29.8 µM | 
